# Values quoted from earlier work, collected in patent US20260373185A1, “METHODS FOR SEQUENTIALLY ADMINISTERING TAS-102 AND BCL-2 INHIBITOR FOR CANCER TREATMENT” (Health Research, Inc., priority 2023, published 2026).
# How the values were obtained:
# BCL-w = settings: cell-free assays
# A1 = settings: relative to BCL-xL, BCL-2 and BCL-w
# p53-deficient cancers = settings: current DNA-damaging drugs
structure (smiles),measurement,setting,value
CC1(C)CCC(c2ccc(Cl)cc2)=C(CN2CCN(c3ccc(C(=O)NS(=O)(=O)c4ccc(N[C@H](CCN5CCOCC5)CSc5ccccc5)c(S(=O)(=O)C(F)(F)F)c4)cc3)CC2)C1 [Navitoclax],binding to Mcl-1,"MCL-1; relative to BCL-xL, BCL-2 and BCL-w",binds more weakly
same,Ki,BCL-w,≤ 1 nM
same,binding to A1,A1,binds more weakly
CC1(C)CCC(CN2CCN(c3ccc(C(=O)NS(=O)(=O)c4ccc(NCC5CCOCC5)c([N+](=O)[O-])c4)c(Oc4cnc5[nH]ccc5c4)c3)CC2)=C(c2ccc(Cl)cc2)C1 [Venetoclax],activity to MCL-1,MCL-1; cell-free assays,no activity
N.N.[Cl][Pt][Cl] [cisplatin],toxicity by p53 status,p53-deficient cancers,toxicity regardless of p53 status
Nc1ccn([C@@H]2O[C@H](CO)[C@@H](O)C2(F)F)c(=O)n1 [gemcitabine],toxicity by p53 status,p53-deficient cancers,toxicity regardless of p53 status
